We go through 21 compounds from patent publication US10822311B2, “Pyrimidines and variants thereof, and uses therefor” (Afferent Pharmaceuticals Inc., priority 2016, dated 2020).

Where two headings read alike, the source gives them in different places.

The test system of assay [1] is P2X3. As to the kind of experiment: Mean pIC50s from Carter et al, P2X3. The assay is classed as cell-based.
The test system of assay [2] is P2X3. The settings on record: Table 3A, oxygen-linked; from Carter et al; cited from earlier work.
In assay [3] the test system is P2X3. As to the kind of experiment: Mean pIC50s from Jahangir et al, P2X3. The assay is classed as cell-based. The following applies: Table 3B, iodo; ratio from the Jahangir et al pIC50s.
Assay [4] concerns P2X3. The settings on record: Table 3B, iodo; from Jahangir et al; cited from earlier work.
Another assay concerns the target T1, P2X2/3 (Homo sapiens, UniProt P56373+Q9UBL9).
T1 sequence (P56373 1-397): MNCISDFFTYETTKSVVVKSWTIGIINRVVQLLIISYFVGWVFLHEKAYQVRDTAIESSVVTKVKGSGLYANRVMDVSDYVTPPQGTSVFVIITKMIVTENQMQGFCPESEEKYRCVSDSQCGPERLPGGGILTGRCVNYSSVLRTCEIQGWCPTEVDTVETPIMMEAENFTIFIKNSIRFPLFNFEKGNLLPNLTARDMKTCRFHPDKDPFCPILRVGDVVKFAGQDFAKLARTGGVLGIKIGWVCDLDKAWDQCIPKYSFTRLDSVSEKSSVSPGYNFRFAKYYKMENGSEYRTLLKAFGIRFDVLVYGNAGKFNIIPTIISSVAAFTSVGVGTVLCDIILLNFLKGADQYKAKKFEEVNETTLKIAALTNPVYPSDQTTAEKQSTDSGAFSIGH
T1 sequence (Q9UBL9 1-471): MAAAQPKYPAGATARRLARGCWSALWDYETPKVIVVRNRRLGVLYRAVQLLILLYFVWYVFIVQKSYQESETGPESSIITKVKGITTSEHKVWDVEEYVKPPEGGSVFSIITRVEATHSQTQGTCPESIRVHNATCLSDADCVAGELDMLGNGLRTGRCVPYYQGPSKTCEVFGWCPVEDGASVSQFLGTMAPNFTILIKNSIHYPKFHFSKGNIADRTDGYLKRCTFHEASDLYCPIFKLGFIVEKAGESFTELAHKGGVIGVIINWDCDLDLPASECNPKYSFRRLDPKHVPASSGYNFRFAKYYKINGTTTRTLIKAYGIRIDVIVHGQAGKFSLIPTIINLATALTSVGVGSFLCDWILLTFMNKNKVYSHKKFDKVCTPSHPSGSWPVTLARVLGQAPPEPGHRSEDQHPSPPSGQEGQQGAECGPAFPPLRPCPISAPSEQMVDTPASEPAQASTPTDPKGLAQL
The following applies: Table 3B, iodo; from Jahangir et al; cited from earlier work.

The target of assay [5] is T2, human P2X3 receptor (homomeric P2X3 channels) (Homo sapiens, UniProt P56373).
T2 construct: expressed in transfected cells; host or cells: HEK293 human embryonic kidney cells (HEK-hP2X3)
T2 sequence (P56373 1-397): T1 sequence (P56373 1-397)
The assay is described as follows: FlexStation calcium fluorescence assay, homomeric P2X3 channels in HEK293 cells. In kind it is cell-based. The settings on record: for Selectivity P2X3/P2X2/3: Ratio=10^(P2X3pIC50−P2X2/3pIC50). The method, then: (§1) 1321N1 human astrocytoma and HEK293 human embryonic kidney cells were stably transfected with human P2X2 and P2X3 receptor subunits to form heteromeric P2X2/3 channels and passaged in flasks. Additionally, HEK293 cells were stably transfected with human P2X3 receptor subunits to form homomeric P2X3 channels.
(§2) Approximately 24 hours before the FlexStation calcium fluorescence experiment, cells were released from their flasks, centrifuged and re-suspended in nutrient medium. The cells were aliquoted into black-wall, clear-bottom 96 well plates at a density of 25,000 cells per well and incubated overnight in a humidified, CO2-enriched (5%) atmosphere at 37° C.
(§3) On the day of the experiment, cells were washed with assay buffer (calcium- and magnesium-free Hank's balanced salt solution, 20 mM HEPES, 2 mM CaCl2; AB) and loaded with 4 μM Fluo-4 (P2X2/3) or Calcium 6 (Molecular Devices, according to manufacturer's instructions; P2X3) calcium-sensitive fluorescent dye in 100 μL AB.
(§4) After 1 hour of dye loading at 37° C., 1321N1-hP2X2/3 cells were washed two times with AB and test compound or vehicle added to each well in a total volume of 150 μL AB. HEK-hP2X3 cells were not washed because the Calcium 6 dye kit includes an extracellular dye that quenches unabsorbed Calcium 6 dye; test compound or vehicle were added directly to the assay plates to achieve the appropriate concentration of test compound in a total volume of 150 μL AB.
(§5) After 20 minutes incubation at room temperature and protected from light, the assay plates were loaded into the FlexStation microplate reader and baseline fluorescence measured with an excitation wavelength of 485 nm and emission wavelength readings centered at 525 nm (515 nm cut off).
(§6) The agonist was dispensed by the FlexStation during fluorescence measurement to construct agonist activation and antagonist inhibition curves. The final agonist concentration for inhibition was 1 μM α,β-meATP for P2X3 and 3 μM ATP for P2X2/3. Peak fluorescence was measured and curves generated using a four parameter nonlinear regression equation.

The target in assay [6] is T3, human P2X2/3 (heteromeric P2X2/3 channels) (Homo sapiens, UniProt P56373+Q9UBL9).
T3 construct: expressed in transfected cells; host or cells: 1321N1 human astrocytoma cells (1321N1-hP2X2/3)
T3 sequence (P56373 1-397): T1 sequence (P56373 1-397)
T3 sequence (Q9UBL9 1-471): T1 sequence (Q9UBL9 1-471)
As to the kind of experiment: FlexStation calcium fluorescence assay, heteromeric P2X2/3 channels in 1321N1 cells. The assay is classed as cell-based. The method, then: as §1, §2, §3, §4, §5, §6

Setting [7] is: HEK293 cells, hP2X3, agonist 1 μM α,β-meATP, read-out: Average pIC50 P2X3 (converted).
Where [8] appears, read: 1321N1 cells, hP2X2/3, agonist 3 μM ATP, highest concentration tested is 10 μM, read-out: Average pIC50 P2X2/3 (converted).

In the case of `COc1cc(C(C)C)c(Oc2cnc(N)nc2N)cc1I` [Row B, X = O], the “Selectivity, X = O” value in the assay with P2X3 [1] is listed as 8. The “P2X3 mean pIC50, X = O” value in the assay on P2X3 [2] was 8.0.
For `COc1cc(C(C)C)c(Oc2cnc(N)nc2NC(CO)CO)cc1I` [Row C, R = I], the “Selectivity, R = I” value with P2X3 [3] stood at 2.5. For the same compound, the “P2X3 mean pIC50, R = I” value in the assay with P2X3 [4] is given as 8.7. Further, the “P2X2/3 mean pIC50, R = I” value on P2X2/3 is recorded as 8.3.
In the case of `COc1cc(C(C)C)c(Oc2cnc(N)nc2N)cc1S(C)(=O)=O` [Row C, X = O], in the assay on P2X3 [1], the “Selectivity, X = O” value was 10. Besides, the “P2X3 mean pIC50, X = O” value with P2X3 [2] is reported as 7.0.
As for `COc1cc(C(C)C)c(Oc2cnc(N)nc2NCCO)cc1I` [Row A, R = I], the “Selectivity, R = I” value in the assay on P2X3 [3] stood at 1.6. For the same compound, the “P2X3 mean pIC50, R = I” value with P2X3 [4] is recorded as 8.0. In addition, the “P2X2/3 mean pIC50, R = I” value on P2X2/3 is listed as 7.8.
As for `COc1cc(Sc2cnc(N)nc2N)c(C(C)C)cc1OC` [Compound 1], the “Average pIC50 P2X3” value in assay [5] (HEK293 cells, hP2X3, agonist 1 μM α,β-meATP) amounted to 7.0. Also, the “P2X3 mean pIC50, X = S” value in assay [5] (Table 3A, sulfur-linked, hP2X3, HEK293 cells, listed as Row A, X = S) amounted to 7.0. Moreover, the IC50 in assay [5] (Table 3A, sulfur-linked, hP2X3, HEK293 cells, read-out: P2X3 mean pIC50, X = S (converted)) is 0.1 µM; in assay [6] (Table 3A, sulfur-linked, hP2X2/3, 1321N1 (astrocytoma) cells, highest concentration tested is 10 μM, read-out: P2X2/3 mean pIC50, X = S (converted)), above 10 µM. For the same compound, the “Average pIC50 P2X2/3” value in assay [6] (1321N1 cells, hP2X2/3, agonist 3 μM ATP, highest concentration tested is 10 μM) was below 5. Besides, the “P2X2/3 mean pIC50, X = S” value in assay [6] (Table 3A, sulfur-linked, hP2X2/3, 1321N1 (astrocytoma) cells, highest concentration tested is 10 μM, listed as Row A, X = S) is below 5.
As to `COc1nc(C(C)C)c(Oc2cnc(N)nc2N)cc1S(C)(=O)=O` [Compound 16], the IC50 in assay [5] (setting [7]) is 0.0631 µM; in assay [6] (setting [8]) it was above 10 µM.
As for `CCNc1ncc(Oc2cc(OC)c(OC)cc2C(C)C)c(N)n1` [Compound 29], the IC50 was 0.398 µM in assay [5] (setting [7]) and 3.16 µM in assay [6] (setting [8]). For the same compound, the “Selectivity P2X3/P2X2/3” value in assay [5] was 9.3.
With `COc1cc(Oc2cnc(N)nc2Nc2ccccn2)c(C(C)C)cc1OC` [Compound 43], the IC50 in assay [5] (setting [7]) was 1.58 µM; in assay [6] (setting [8]), above 10 µM. The “Selectivity P2X3/P2X2/3” value in assay [5] is above 5.6.
On to `COc1cc(C(C)C)c(Sc2cnc(N)nc2N)cc1S(N)(=O)=O` [Compound 3], for which the IC50 in assay [5] (setting [7]) is 0.158 µM; in assay [6] (setting [8]), above 10 µM.
Turning to `COc1cc(Oc2cnc(NC(CO)CO)nc2N)c(C(C)C)cc1OC` [Compound 30], the figures for the IC50 in assay [5] (setting [7]) and in assay [6] (setting [8]) were 0.126 µM and 0.631 µM, respectively. The “Selectivity P2X3/P2X2/3” value in assay [5] came out at 4.9. For the same compound, the “Selectivity, R = OMe” value in assay [5] (Table 3B, P2X3 vs P2X2/3 potency ratio) is reported as 5.0. Further, the “P2X3 mean pIC50, R = OMe” value in assay [5] (Table 3B, hP2X3, HEK293 cells, Table 2) is reported as 6.9. The “P2X2/3 mean pIC50, R = OMe” value in assay [6] (Table 3B, hP2X2/3, 1321N1 (astrocytoma) cells, Table 2) is recorded as 6.2.
Turning to `C#Cc1cc(Sc2cnc(N)nc2N)c(C(C)C)cc1OC` [Compound 5], the IC50 in assay [5] (setting [7]) was 0.0398 µM; in assay [6] (setting [8]), 3.98 µM.
In the case of `COc1cc(Oc2cnc(N)nc2N)c(C(C)C)cc1OC` [Row A, X = O], the “P2X3 mean pIC50, X = O” value with P2X3 [2] is given as 7.6.
For the compound `COc1cc(C(C)C)c(Sc2cnc(N)nc2N)cc1C` [Compound 7], the values for the IC50 in assay [5] (setting [7]) and in assay [6] (setting [8]) were 0.316 µM and above 10 µM, respectively.
Regarding `COc1cc(C(C)C)c(Oc2cnc(N)nc2NCC(O)CO)cc1I` (centres unmarked) [Row B, R = I], in the assay with P2X3 [3], the “Selectivity, R = I” value stood at 4.0. Besides, the “P2X3 mean pIC50, R = I” value with P2X3 [4] is 8.1. The “P2X2/3 mean pIC50, R = I” value on P2X2/3 is reported as 7.5.
Consider `COc1cc(Oc2cnc(N)nc2NC(C)C)c(C(C)C)cc1OC` [Compound 35], for which the results for the IC50 in assay [5] (setting [7]) and in assay [6] (setting [8]) were 3.98 µM and above 10 µM, respectively. Besides, the “Selectivity P2X3/P2X2/3” value in assay [5] is above 2.5.
In the case of `COCCNc1nc(N)ncc1Oc1cc(OC)c(OC)cc1C(C)C` [Compound 36], the results for the IC50 in assay [5] (setting [7]) and in assay [6] (setting [8]) were 1 µM and above 10 µM, respectively. The “Selectivity P2X3/P2X2/3” value in assay [5] was above 10.
Take `COc1cc(Nc2cnc(N)nc2N)c(C(C)C)cc1OC` [Compound 47]: the IC50 in assay [5] (setting [7]) is 0.049 µM; in assay [6] (setting [8]), 1.38 µM.
In the case of `COc1cc(C(C)C)c(Sc2cnc(N)nc2N)cc1I` [Compound 4], the IC50 in assay [5] (setting [7]) is 0.126 µM; in assay [6] (setting [8]), 6.31 µM. For the same compound, the “Selectivity, X = S” value in assay [5] (Table 3A, sulfur-linked, P2X3 vs P2X2/3 potency ratio) came to 48. Moreover, the “P2X2/3 mean pIC50, X = S” value in assay [6] (Table 3A, sulfur-linked, hP2X2/3, 1321N1 (astrocytoma) cells, highest concentration tested is 10 μM) is 5.2.
In the case of `CNc1nc(N)ncc1Oc1cc(OC)c(OC)cc1C(C)C` [Compound 34], the IC50 was 1.58 µM in assay [5] (setting [7]) and above 10 µM in assay [6] (setting [8]). Further, in assay [5], the “Selectivity P2X3/P2X2/3” value is recorded as above 6.4.
In the case of `COc1cc(C(C)C)c(Oc2cnc(N)nc2N)cc1Cl` [Row D, X = O], the “Selectivity, X = O” value in the assay with P2X3 [1] (Table 3A, oxygen-linked, ratio from the Carter et al pIC50s) is on record as 4. The “P2X3 mean pIC50, X = O” value in the assay with P2X3 [2] is reported as 7.6.
As for `COc1ccc(Oc2cnc(N)nc2N)c(C(C)C)n1` [Compound 14], the IC50 in assay [5] (setting [7]) is 1.26 µM; in assay [6] (setting [8]) it was above 10 µM.
